{"source": "patent US20230383292A1", "about": "“TARGETING XIST AND RNA METHYLATION FOR X REACTIVATION THERAPY” (The General Hospital Corporation, priority 2020, published 2023)", "system": "human XIST transcript", "experiment": "XIST knock down by XIST ASOs (Table 1)", "assay_type": "cell-based", "parameters": "ASO conc at max KD: unit not given here", "details": "for % Max KD: XIST knock down, cells treated for 72 hrs with XIST ASO; for ASO conc at max KD: concentration of XIST ASO giving max KD, 72 hrs", "source_text": "The methods include administering an inhibitor of an XIST RNA itself, e.g., an inhibitory nucleic acid targeting XIST RNA. Although in typical usage XIST refers to the human sequence and XIST to the mouse sequence, in the present application the terms are used interchangeably. The human XIST sequence is available in the ensemble database at ENSG00000229807; it is present on Chromosome X at 73,820,651-73,852,753 reverse strand (Human GRCh38.p2). The sequences of exons 1-6 are shown in SEQ ID NOs:73-79 (see FIG. 2); XIST exons correspond to 601-11972 (exon 1); 15851-15914 (exon 2); 19593-20116 (exon 3); 21957-21984 (exon 4); 22080-22288 (exon 5); and 23887-33304 (exon 6). […] The inhibitory nucleic acid targeting XIST RNA can be any inhibitory nucleic acid as described herein, and can include modifications described herein or known in the art. In some embodiments, the inhibitory nucleic acid is an antisense oligonucleotide (ASO) that targets a sequence in XIST RNA, e.g., a sequence within an XIST exon as shown in SEQ ID NO:1-45 or within the RNA sequence as set forth in NR_001564.2, preferably wherein the ASO comprises a sequence as shown in Table 1. In some embodiments, the inhibitory nucleic includes at least one locked nucleotide, e.g., is a locked nucleic acid (LNA). Table 1 provides a list of ASOs that have more than 80% XIST knock down when cells are treated for 72 hrs with the below XIST ASOs.", "data": [{"substance": "ASO 6R: XIST antisense oligonucleotide GGCCTTGTGTCACAAGTCTC, SEQ ID NO 6 (listed as DNA, chemistry not given here)", "values": [{"measurement": "% Max KD", "result": 99, "unit": "%"}, {"measurement": "ASO conc at max KD", "result": 100}]}, {"substance": "ASO 1V: XIST antisense oligonucleotide AGGACCTTATTCACATGGAA, SEQ ID NO 10 (listed as DNA, chemistry not given here)", "values": [{"measurement": "% Max KD", "result": 98, "unit": "%"}, {"measurement": "ASO conc at max KD", "result": 20}]}, {"substance": "ASO 6Q: XIST antisense oligonucleotide TCAGAAGTCTGGCACATCTG, SEQ ID NO 5 (listed as DNA, chemistry not given here)", "values": [{"measurement": "% Max KD", "result": 99, "unit": "%"}, {"measurement": "ASO conc at max KD", "result": 100}]}, {"substance": "ASO 1P: XIST antisense oligonucleotide TAGCTCATGCAATGCACATG, SEQ ID NO 2 (listed as DNA, chemistry not given here)", "values": [{"measurement": "% Max KD", "result": 99, "unit": "%"}, {"measurement": "ASO conc at max KD", "result": 100}]}, {"substance": "ASO 5A: XIST antisense oligonucleotide CAAATTTCTTGGACCTGCTG, SEQ ID NO 16 (listed as DNA, chemistry not given here)", "values": [{"measurement": "% Max KD", "result": 96, "unit": "%"}, {"measurement": "ASO conc at max KD", "result": 20}]}, {"substance": "ASO 1A: XIST antisense oligonucleotide TAGTTAGCACTCCTGCTGCT, SEQ ID NO 7 (listed as DNA, chemistry not given here)", "values": [{"measurement": "% Max KD", "result": 98, "unit": "%"}, {"measurement": "ASO conc at max KD", "result": 20}]}, {"substance": "ASO 1U: XIST antisense oligonucleotide CTTACAACTGTGCACCTTGA, SEQ ID NO 15 (listed as DNA, chemistry not given here)", "values": [{"measurement": "% Max KD", "result": 96, "unit": "%"}, {"measurement": "ASO conc at max KD", "result": 100}]}, {"substance": "ASO 1E: XIST antisense oligonucleotide GAATTCCTCTTCTGCCACCT, SEQ ID NO 28 (listed as DNA, chemistry not given here)", "values": [{"measurement": "% Max KD", "result": 91, "unit": "%"}, {"measurement": "ASO conc at max KD", "result": 20}]}, {"substance": "ASO 1C: XIST antisense oligonucleotide TGAGGCACCAATACAGAGGA, SEQ ID NO 18 (listed as DNA, chemistry not given here)", "values": [{"measurement": "% Max KD", "result": 95, "unit": "%"}, {"measurement": "ASO conc at max KD", "result": 20}]}, {"substance": "ASO 6P: XIST antisense oligonucleotide CCAGAGTGGTAGAAGAGATA, SEQ ID NO 27 (listed as DNA, chemistry not given here)", "values": [{"measurement": "% Max KD", "result": 92, "unit": "%"}, {"measurement": "ASO conc at max KD", "result": 20}]}, {"substance": "ASO 3P: XIST antisense oligonucleotide TAGATTAGCTGGAGCTTGGC, SEQ ID NO 4 (listed as DNA, chemistry not given here)", "values": [{"measurement": "% Max KD", "result": 99, "unit": "%"}, {"measurement": "ASO conc at max KD", "result": 100}]}, {"substance": "ASO 6I: XIST antisense oligonucleotide GTTCTGCACCTATCAGGCAG, SEQ ID NO 25 (listed as DNA, chemistry not given here)", "values": [{"measurement": "% Max KD", "result": 93, "unit": "%"}, {"measurement": "ASO conc at max KD", "result": 20}]}, {"substance": "ASO 1F: XIST antisense oligonucleotide TTTAGCTCATGCAATGCACA, SEQ ID NO 9 (listed as DNA, chemistry not given here)", "values": [{"measurement": "% Max KD", "result": 98, "unit": "%"}, {"measurement": "ASO conc at max KD", "result": 20}]}, {"substance": "ASO 1D: XIST antisense oligonucleotide TCAGACTGTATGACTGACAT, SEQ ID NO 8 (listed as DNA, chemistry not given here)", "values": [{"measurement": "% Max KD", "result": 98, "unit": "%"}, {"measurement": "ASO conc at max KD", "result": 20}]}, {"substance": "ASO 6U: XIST antisense oligonucleotide CTTTGTCCCAGGCACAGTCA, SEQ ID NO 13 (listed as DNA, chemistry not given here)", "values": [{"measurement": "% Max KD", "result": 97, "unit": "%"}, {"measurement": "ASO conc at max KD", "result": 20}]}, {"substance": "ASO 4P: XIST antisense oligonucleotide GTTGTTGCCCAGTGGTAGTG, SEQ ID NO 33 (listed as DNA, chemistry not given here)", "values": [{"measurement": "% Max KD", "result": 88, "unit": "%"}, {"measurement": "ASO conc at max KD", "result": 100}]}, {"substance": "ASO 6D: XIST antisense oligonucleotide TCAAGACTGGCCCAGGCATA, SEQ ID NO 17 (listed as DNA, chemistry not given here)", "values": [{"measurement": "% Max KD", "result": 96, "unit": "%"}, {"measurement": "ASO conc at max KD", "result": 20}]}, {"substance": "ASO 6S: XIST antisense oligonucleotide CTGAGGATTGTTTCTGAAAG, SEQ ID NO 21 (listed as DNA, chemistry not given here)", "values": [{"measurement": "% Max KD", "result": 95, "unit": "%"}, {"measurement": "ASO conc at max KD", "result": 100}]}, {"substance": "ASO 6E: XIST antisense oligonucleotide AGTTCAGGCTGTCCCCTTGG, SEQ ID NO 26 (LNA gapmer with DNA gap, wing lengths and linkages not given here)", "values": [{"measurement": "% Max KD", "result": 92, "unit": "%"}, {"measurement": "ASO conc at max KD", "result": 20}]}, {"substance": "ASO 1X: XIST antisense oligonucleotide ACTCAGCAGCAATGGCAAAG, SEQ ID NO 29 (listed as DNA, chemistry not given here)", "values": [{"measurement": "% Max KD", "result": 89, "unit": "%"}, {"measurement": "ASO conc at max KD", "result": 100}]}, {"substance": "ASO 1W: XIST antisense oligonucleotide CTTAAGTAGTAGGTACTTCC, SEQ ID NO 3 (listed as DNA, chemistry not given here)", "values": [{"measurement": "% Max KD", "result": 99, "unit": "%"}, {"measurement": "ASO conc at max KD", "result": 20}]}, {"substance": "ASO 4A: XIST antisense oligonucleotide GGTTGTTGCCCAGTGGTAGT, SEQ ID NO 35 (listed as DNA, chemistry not given here)", "values": [{"measurement": "% Max KD", "result": 84, "unit": "%"}, {"measurement": "ASO conc at max KD", "result": 20}]}, {"substance": "ASO 5P: XIST antisense oligonucleotide GTTCAAATTTCTTGGACCTG, SEQ ID NO 34 (listed as DNA, chemistry not given here)", "values": [{"measurement": "% Max KD", "result": 88, "unit": "%"}, {"measurement": "ASO conc at max KD", "result": 20}]}, {"substance": "ASO 1S: XIST antisense oligonucleotide CAGAAACCCAAGTCTAATTG, SEQ ID NO 23 (listed as DNA, chemistry not given here)", "values": [{"measurement": "% Max KD", "result": 94, "unit": "%"}, {"measurement": "ASO conc at max KD", "result": 20}]}, {"substance": "ASO 1R: XIST antisense oligonucleotide CTGTGACTACAGAAGCAATG, SEQ ID NO 22 (listed as DNA, chemistry not given here)", "values": [{"measurement": "% Max KD", "result": 94, "unit": "%"}, {"measurement": "ASO conc at max KD", "result": 100}]}, {"substance": "ASO 6T: XIST antisense oligonucleotide CCCACAGAAAGTAATCACCA, SEQ ID NO 31 (listed as DNA, chemistry not given here)", "values": [{"measurement": "% Max KD", "result": 89, "unit": "%"}, {"measurement": "ASO conc at max KD", "result": 20}]}, {"substance": "ASO 6A: XIST antisense oligonucleotide TATGGCCCACAGTCTAAAGT, SEQ ID NO 1 (listed as DNA, chemistry not given here)", "values": [{"measurement": "% Max KD", "result": 99.3, "unit": "%"}, {"measurement": "ASO conc at max KD", "result": 20}]}, {"substance": "ASO 5B: XIST antisense oligonucleotide TTTCTTGGACCTGCTGAAGA, SEQ ID NO 20 (listed as DNA, chemistry not given here)", "values": [{"measurement": "% Max KD", "result": 95, "unit": "%"}, {"measurement": "ASO conc at max KD", "result": 20}]}]}
